Results from patent US12590057B2, “Crystalline complexes” (Theracryf PLC, priority 2020, dated 2026).

Experiments:
Type in all cases: physicochemical
Compression testing = conditions: 20 kg, 50 kg and 100 kg for 2 minutes each
Method: 15 mg samples of Example 3 (Form 3) were compressed into 3 mm recess discs under 20 kg, 50 kg and 100 kg of pressure for 2 minutes each.

[1] = Aqueous manipulation (slurry in water, XRPD)
Method: Example 3—Form 3 (100 mg) was placed in a 4 ml vial, to which H2O (200 μl, 2 volumes) was added. The sample was capped and left at ambient temperature overnight. A spatula fill of the slurry was placed in a well and analysed by XRPD in transmission mode. The XRPD analysis was repeated every 5 minutes for 36 minutes on the same sample in the well. An XRPD was recorded 4 hours later too.

[2] = XRPD physical form after storage; conditions: days 7, 9 and 29 after removal from drying oven, ambient conditions
Method: XRPD diffractograms were collected on a PANalytical Empyrean diffractometer using Cu Kα radiation (45 kV, 40 mA) in transmission geometry. A 0.5° sat, 4 mm mask and 0.04 rad Soller slits with a focusing mirror were used on the incident beam. A PIXcel^3D detector, placed on the diffracted beam, was fitted with a receiving slit and 0.04 rad Soller slits. The software used for data collection was X'Pert Data Collector using X'Pert Operator Interface. The data were analysed and presented using Diffrac Plus EVA or HighScore Plus.
After removal from the vacuum oven (day 0), Example 3 was reanalysed by XRPD in reflection mode on days 7, 9 and 29.
In a separate study, samples of Form 3 (Example 5.3; batch ref. 491-PAL-18) having an initial water content by KF of 2.3% w/w were tested for water content at various time points after storage double bagged in a HDPE bottle under various conditions as shown in Table 17.

[3] = Storage at high humidity and/or elevated temperature
Method: A sample of Example 3 (Form 3) was stored at 25° C. and 97% RH for 7 days.
A sample of Example 3 (Form 3) was stored at 40° C. and 75% RH for 7 days.

[4] = Preliminary stability study, related substances by HPLC; conditions: 25° C./60% RH stability
Method: Analysis of samples of sulforaphane:alpha-cyclodextrin complexes as prepared herein were carried out by HPLC according to the following method: • Column—Phenomenex Gemini C18, 5 μm, 110 Å, 250×4.6 mm; • Mobile Phase A: Water (+0.1% TFA); • Mobile Phase B: Acetonitrile (+0.1% TFA); • Flow: 1.5 mL/min; • Injection Volume: 10 μL; • Column Temperature: 25° C.; • Run Time: 40 minutes; • Sample preparation—Accurately weighed and transferred about 320 mg±30 mg of the sample to a 25-mL volumetric flask, added about 15 mL of diluent (70% water, 30% acetonitrile, 0.1% TFA) and mixed until dissolved. Diluted to volume with diluent and mixed. Transferred 3-4 mL to a syringe and filtered using a 0.45 PTFE filter, discarding the first 1-2 ml, and filtered into an autosampler vial and sealed with PTFE lined cap (prepared in duplicate); • HPLC Gradient according to Table 12
Sulforaphane and certain related impurity peaks are summarised in Table 13, Characterisation of the impurities was carried out by LC-MS and ^1H-NMR. Relative Retention Times (RRT) are based on the HPLC method described above.
Samples of Form 1 (batch ref. LS19-0004-S-8002), Form 3 prepared by minimally-agitated drying (Example 5.3; batch ref. 491-PAL-18) and Form 3 prepared by continuously-agitated filter drying (Example 5B—trial 5; batch ref. 00173-005) were stored at 5° C. (Table 14) and at 25° C./60% RH (Table 15) for 8 weeks in 60 ml Duma® bottles fitted with 45 mm Duma® caps and samples were analysed by HPLC according to the above method.

SMILES | decomposition by 1H-NMR after compression (Compression testing) | form by XRPD after compression (Compression testing) | form by XRPD when slurried in water ([1]; 2 volumes H2O, ambient temperature overnight, XRPD after 14 and 36 mins) | form by XRPD after slurry sample left at ambient conditions ([1]; 4 further hours at ambient conditions) | solid state form by XRPD (reflection mode) [2] | decomposition by 1H-NMR ([3]; 25° C. and 97% RH for 7 days) | form by XRPD ([3]; 25° C. and 97% RH for 7 days) | decomposition by 1H-NMR ([3]; 40° C. and 75% RH for 7 days) | Related substances, HPLC RRT 0.56 (Dimer) ([4]; 8 wk) [% Area] | Related substances, HPLC RRT 0.60 (α-CD adduct) ([4]; 8 wk) [% Area] | Related substances, HPLC RRT 1.14 (Mixed dimer) ([4]; 8 wk) [% Area] | Related substances, HPLC RRT 1.21 (Erysolin) ([4]; 8 wk) [% Area] | Related substances, HPLC RRT 1.58 (Thioether dimer) ([4]; 8 wk) [% Area] | Related substances, Total Impurities ([4]; 8 wk) [% Area] | Related substances, HPLC RRT 0.56 (Dimer) ([4]; Initial) [% Area] | Related substances, HPLC RRT 0.60 (α-CD adduct) ([4]; Initial) [% Area] | Related substances, HPLC RRT 1.14 (Mixed dimer) ([4]; Initial) [% Area] | Related substances, HPLC RRT 1.21 (Erysolin) ([4]; Initial) [% Area] | Related substances, HPLC RRT 1.58 (Thioether dimer) ([4]; Initial) [% Area] | Related substances, Total Impurities ([4]; Initial) [% Area]
C[S+]([O-])CCCCN=C=S.OC[C@H]1O[C@@H]2O[C@H]3[C@H](O)[C@@H](O)[C@@H](O[C@H]4[C@H](O)[C@@H](O)[C@@H](O[C@H]5[C@H](O)[C@@H](O)[C@@H](O[C@H]6[C@H](O)[C@@H](O)[C@@H](O[C@H]7[C@H](O)[C@@H](O)[C@@H](O[C@H]1[C@H](O)[C@H]2O)O[C@@H]7CO)O[C@@H]6CO)O[C@@H]5CO)O[C@@H]4CO)O[C@@H]3CO [Form 3] | No decomposition | still existed as Form 3 | converted to Form 2 | converted from Form 2 to Form 1 | still existed as Form 3 | no decomposition was evident | converted at this very high humidity level to Form 1 | some decomposition had occurred | – | – | – | – | – | – | – | – | – | – | – | –
C[S+]([O-])CCCCN=C=S.OCC1OC2OC3C(CO)OC(OC4C(CO)OC(OC5C(CO)OC(OC6C(CO)OC(OC7C(CO)OC(OC1C(O)C2O)C(O)C7O)C(O)C6O)C(O)C5O)C(O)C4O)C(O)C3O (centres unmarked) [Form 1] | – | – | – | – | – | – | – | – | 0.20 | 0.10 | 0.06 | 0.30 | <0.05 | 0.99 | 0.19 | 0.06 | <0.05 | 0.28 | <0.05 | 0.90
